# Data reported in patent publication US20240117303A1, “METHODS AND COMPOSITIONS FOR GENERATING HUMAN MIDBRAIN DOPAMINERGIC NEURONS FROM NEURAL PROGENITOR CELLS” (Trailhead Biosystems Inc., priority 2022, published 2024).
# Test system: stage 2 neural progenitors
# Experiment: HD-DoE 12-factor model for stage 3 recipe (FIG. 19-23, 29)
# Assay type: cell-based, human
smiles,measurement,setting,value
Cc1c[nH]c(-c2cnc(NCCNc3ccc(C#N)cn3)nc2-c2ccc(Cl)cc2Cl)n1 [CHIR99021],impact on expression of KCNJ6,"dynamic profile, 12 effectors",positive impact
same,factor contribution,"model maximizing expression of CORIN, negative impact",10.9
same,factor contribution,"model optimized for maximum expression of KCNJ6, positive regulators",10.7
same,expression level of KCNJ6 in absence of the factor,"stage 3 recipe, other factors present, 50 with all factors",50
same,expression level of SOX6 in absence of the factor,"stage 3 recipe, other factors present, 105 with all factors",125
same,expression level of MSX1 in absence of the factor,"stage 3 recipe, other factors present, 140 with all factors",115
same,expression level of CORIN in absence of the factor,"stage 3 recipe, other factors present, 900 with all factors",1200
